{"source": "patent US8940334B2", "about": "“Pharmaceutical composition of an anthracycline” (priority 2007, dated 2015)", "key": {"[1]": {"experiment": "Size and appearance of drug-loaded DC Bead microspheres by image analysis at microscope", "format": "physicochemical", "conditions": "doxorubicin 25 mg drug/ml DC Bead; over loading and elution in PBS", "experimental": "Nemorubicin hydrochloride was diluted at the concentration range of from 0.1 to 2.0 mg drug/ml DC Bead™ that represent clinically applicable doses. In the following examples microspheres of 100-300 μm diameters (DC Bead™) were used. Similar results were obtained when microspheres of 300-500 μm diameters (DC Bead™) were used.\nThe size and spherical shape of microspheres were analyzed after loading with nemorubicin hydrochloride and during the release of the drug up to 16 days. As comparison DC Bead™ microspheres were loaded with doxorubicin at the clinically used dosage of 25 mg drug/ml DC Bead™.\nDrug loading: DC Bead™ microspheres were conditioned in water for 10 min. Then the water was discarded and nemorubicin hydrochloride or doxorubicin was added.\nDrug release: DC™ microspheres with or without drug were incubated in Phosphate Buffer Saline (PBS) or human plasma from healthy donors up to 16 days. The size and spherical shape of DC Bead™ microspheres were measured at different time points.\nSize and appearance of nemorubicin hydrochloride-DC Bead™ microspheres during drug-loading and drug-elution were determined by a Leica DM IRB (Leica) microscope equipped by Evolution MP Color CCD Camera (Media Cybernatics). The analysis of size was performed by Image Pro Plus™ (Media Cybernatics). […] At least four field-images for samples were analyzed to support the statistical analysis."}, "[2]": {"tested_on": "human mammary adenocarcinoma cells (MCF-7)", "experiment": "Cytotoxicity of elution fractions from DC Bead microspheres on MCF-7 cells (ATPLite)", "format": "cell-based", "conditions": "MCF-7, 72 h treatment", "experimental": "(§1) The release of nemorubicin hydrochloride from DC Bead™ microspheres was evaluated in PBS and in human plasma. At the end of the loading time and at each elution point, loaded nemorubicin hydrochloride-DC Bead™ microspheres were washed by warm water and finally incubated in warm PBS or human plasma at 37° C.\nAt desiderate elution time supernatant was collected carefully by syringe, avoiding beads aspiration. Then solutions were filtered by 70 μm nylon filcon filter (BD Biosciences) to avoid carry-over contamination, collected in Eppendorf tubes and finally stored at −20° C. for further analysis.\nSamples were split for: • evaluation of the cytotoxicity of nemorubicin hydrochloride and doxorubicin against tumor cells (as dose able to inhibit cell growth by 50%; IC50). • evaluation of the released amount of nemorubicin hydrochloride and doxorubicin by HPLC-MS/UV analysis (the method used is reported in Example 2). In Vitro Antitumor Activity\nThe cytotoxic effect of elution fractions was investigated on human mammary adenocarcinoma cells (MCF-7, ECACC source). Cells were grown in E-MEM/Glutamax medium (Invitrogen), 10% FBS (EuroClone), and 1% Non-Essential AminoAcids (Invitrogen) and maintained at 37° C. at 5% CO2. For cytotoxicity test, cells were plated at density of 5,000 cells/well in 96-well plates (Corning) and grown for 24 h before treatment. Cells were treated for 72 h by raise dilutions of elution fractions. At the end of treatment, cells were incubated with TS substrate (ATPLite™). Plates were read for chemiluminescence (480/540 nm) by Perkin Elmer Envision™ plate reader.\nIC50 were calculated by LSW Data Analysis™ curve fitting. The IC50 value of nemorubicin hydrochloride and doxorubicin in the medium eluted from DC Bead™ microspheres was compared to that of standard nemorubicin hydrochloride or doxorubicin fresh solutions."}, "[3]": {"experiment": "Release of drug from DC Bead microspheres in human plasma", "format": "physicochemical", "conditions": "37° C.", "experimental": "The measurements of nemorubicin hydrochloride in the elution medium were carried out with HPLC-MS/UV analysis performed by Finnigan MAT/LCQ Deca XP ion trap MS equipped with ESI ion source, directly connected to a Surveyor HPLC system (Thermo Electron Corporation). HPLC-MS/UV separations were set up on Phenomenex Gemini Phenyl, 3 μm, 50×4.6 mm by Acetate Buffer:Acetonitrile 1:9. UV detection was done at 480 nm and for ESI-MS analysis a heated capillary temperature at 275° C. and spray voltage at 4 KV was applied.\nas §1\nAt desiderate elution time supernatant was collected carefully by syringe, avoiding beads aspiration. Then solutions were filtered by 70 μm nylon filcon filter (BD Biosciences) to avoid carry-over contamination, collected in Eppendorf tubes and finally stored at −20° C. for further analysis. […]"}, "[4]": {"experiment": "Elution efficiency from HepaSphere microspheres (HPLC-MS/UV)", "format": "physicochemical", "conditions": "up to 168 h", "experimental": "Nemorubicin hydrochloride (1 mg drug/ml HepaSphere™, 2.5 mg drug/ml HepaSphere™) and doxorubicin (1 mg drug/ml HepaSphere™, 2.5 mg drug/ml HepaSphere™, 25 mg drug/ml HepaSphere™) were mixed with HepaSphere™ microspheres (50-100 μm). After 20 minutes of incubation the elution efficiency of nemorubicin hydrochloride and doxorubicin was measured up to 168 h.\nAt desiderate elution time, supernatant was collected carefully by syringe, avoiding beads aspiration. Then solutions were collected in Eppendorf tubes and stored at −20° C. for further analysis.\nThe released amount of nemorubicin hydrochloride and doxorubicin was evaluated by HPLC-MS/UV analysis (the method used is reported in Example 2)."}}}
{"smiles": "COc1cccc2c1C(=O)c1c(O)c3c(c(O)c1C2=O)C[C@@](O)(C(=O)CO)C[C@@H]3O[C@H]1C[C@H](N)[C@H](O)[C@H](C)O1", "note": "[Doxorubicin, reference compound]", "values": [{"measurement": "size range of loaded microspheres (diameter)", "setting": "[1]", "value": "85-125 μm"}, {"measurement": "IC50", "setting": "[2]; MCF7, 72 h, Standard (fresh drug solution)", "value": 250, "unit": "nM"}, {"measurement": "IC50", "setting": "[2]; MCF7, 72 h, fraction eluted at 72 h", "value": 140, "unit": "nM"}, {"measurement": "IC50", "setting": "[2]; MCF7, fraction eluted at 24 h", "value": 250, "unit": "nM"}, {"measurement": "IC50", "setting": "[2]; MCF7, fraction eluted at 48 h", "value": 180, "unit": "nM"}, {"measurement": "IC50", "setting": "[2]; MCF7, fraction eluted at 96 h", "value": 200, "unit": "nM"}, {"measurement": "IC50", "setting": "[2]; MCF7, fraction eluted at 120 h", "value": 450, "unit": "nM"}, {"measurement": "IC50", "setting": "[2]; MCF7, fraction eluted at 144 h", "value": 1500, "unit": "nM"}, {"measurement": "IC50", "setting": "[2]; MCF7, fraction eluted from DC Bead microspheres at 1 h", "value": 300, "unit": "nM"}, {"measurement": "total drug released", "setting": "[3]", "value": 2.5, "unit": "%"}, {"measurement": "% total released drug", "setting": "[4]; Dose 1 mg drug/ml HepaSphere (50-100 μm)", "value": 7, "unit": "%"}, {"measurement": "% total released drug", "setting": "[4]; Dose 2.5 mg drug/ml HepaSphere (50-100 μm)", "value": 4, "unit": "%"}, {"measurement": "% total released drug", "setting": "[4]; Dose 25 mg drug/ml HepaSphere (50-100 μm)", "value": 35, "unit": "%"}]}
